For one compound, stability results are on record in PMC9281440, “In Vivo Distribution and Therapeutic Efficacy of Radioiodine-Labeled pH-Low Insertion Peptide Variant 3 in a Mouse Model of Breast Cancer” (Molecular Imaging, 2022).

SMILES strings stand for the structures. Peptide text beside a SMILES is read from it.

The nature of this series: In vitro stability of radiolabeled peptides in PBS at room temperature. Format: physicochemical. Particulars: room temperature (25°C), PBS buffer, radiochemical purity, thin-layer chromatography. Here is the method: WT-pHLIP and Var3-pHLIP were labeled with ^125I for in vivo imaging experiments, and Var3-pHLIP was labeled with ^131I for therapeutic efficacy experiments. Radioactive iodine binds to tyrosine residues in pHLIPs. Peptides were dissolved in 200 μL of 0.02 M PBS (pH 7.4) to reach a concentration of 1 mg/mL and mixed with 10 μL of Na^125I (74 MBq) or 20 μL of Na^131I (925 MBq). Chloramine-T (20 μL, 5 mg/mL) was added to the test tubes and mixed for 70 s at room temperature. The reaction was stopped by adding 200 μL of sodium metabisulfite (5 mg/mL). The peptides were eluted in ethanol through a C18 column equilibrated with 20 mL of 100% ethanol and 20 mL of distilled water. The radioactive purity of ^125I-WT-pHLIP, ^125I-Var3-pHLIP, and ^131I-Var3-pHLIP was determined using thin-layer chromatography. Furthermore, the radiochemical purity of ^125I-WT-pHLIP, ^125I-Var3-pHLIP, and ^131I-Var3-pHLIP was measured, and chemical stability was determined at 24 and 48 h at room temperature (25°C) in PBS and at 37°C in serum.

Regarding `CC(C)C[C@H](NC(=O)[C@H](Cc1ccc(O)c(I)c1)NC(=O)[C@H](C)NC(=O)[C@H](CCCNC(=N)N)NC(=O)[C@H](Cc1c[nH]c2ccccc12)NC(=O)[C@@H]1CCCN1C(=O)[C@H](CC(N)=O)NC(=O)[C@H](CCC(N)=O)NC(=O)[C@H](CC(=O)O)NC(=O)[C@H](CC(=O)O)NC(=O)[C@H](CS)NC(=O)[C@H](C)N)C(=O)N[C@@H](CC(=O)O)C(=O)N[C@@H](CC(C)C)C(=O)N[C@@H](CC(C)C)C(=O)N[C@@H](Cc1ccccc1)C(=O)N1CCC[C@H]1C(=O)N[C@H](C(=O)N[C@@H](CC(=O)O)C(=O)N[C@H](C(=O)N[C@@H](CC(C)C)C(=O)N[C@@H](CC(C)C)C(=O)N[C@@H](CC(C)C)C(=O)N[C@@H](CC(=O)O)C(=O)N[C@@H](CC(C)C)C(=O)N[C@@H](CC(C)C)C(=O)N[C@@H](Cc1c[nH]c2ccccc12)C(=O)N[C@@H](CCCCN)C(=O)O)[C@@H](C)O)[C@@H](C)O` [125I-Var3-pHLIP] (HELM PEPTIDE1{A.C.D.D.Q.N.P.W.R.A.[O=C([C@H](Cc1ccc(O)c(I)c1)N[*:1])[*:2]].L.D.L.L.F.P.T.D.T.L.L.L.D.L.L.W.K}$$$$V2.0; N-terminus and C-terminus assumed), the stability reads like this: (24 h) above 95%; (48 h) above 90%.
